Assay results reported in PMC10080691, “Enzyme-Responsive Double-Locked Photodynamic Molecular Beacon for Targeted Photodynamic Anticancer Therapy” (Journal of the American Chemical Society, 2023).

Assays:
[1] = test system: A549 tumor-bearing nude mice; assay: In vivo fluorescence activation in tumor; design: species or system Balb/c nude mice; details: 6 h post-injection; intratumoral, 20 nmol in 20 μL water with 7.5% DMSO and 0.5% Tween 80; excitation 680 nm, emission ≥700 nm; n = 4
Procedure: The in vivo activation of 1 in terms of fluorescence emission was further investigated using A549 tumor-bearing nude mice as the animal model and the non-cleavable analogue 14 as the negative control. […] The fluorescence intensity per unit area of the tumor was also determined at different time points for both conjugates (Figure 7b). […] At 6 h post-injection, the intensity of 1 was 4.3-fold higher than that of 14, showing that the former could be activated through enzymatic cleavage of the two peptide segments by the intrinsic MMP-2 and cathepsin B in the tumor, while the latter remained largely quenched due to its non-cleavable nature. […]
taken by a microplate reader (Tecan Spark 10M) at ambient temperature. The average […]
of the other wells. The cell viability was then determined by the equation: […]
where Ai is the absorbance of the ith datum (i = 1, 2, …, n), Acontrol is the average absorbance of the control wells in which the compound was absent, and n (= 4) is the number of data points.
Female Balb/c nude mice (20–25 g) were obtained from the Laboratory Animal Services Centre at The Chinese University of Hong Kong. […] In vivo fluorescence imaging was performed before and after […]
A549 tumor-bearing nude mice were prepared as described above. The length and width of the tumor were measured using a micrometer digital caliper (SCITOP Systems). […]

[2] = test system: HeLa human cervical carcinoma cells; assay: Intracellular fluorescence by flow cytometry; type: cell-based; details: 2 μM 1 h + 6 h, SB-3CT (10 μM) and CA-074 Me (25 μM) 2 h pretreatment
Procedure: The cells were pretreated with SB-3CT (10 μM) and/or CA-074 Me (25 μM) or simply the neat medium for 2 h, followed by incubation with 1 (2 μM) for a further 1 h. After being rinsed with PBS, the cells were incubated in the medium for a further 6 h. As a negative control, the cells were simply incubated with 14 (2 μM) for 1 h, followed by post-incubation in the medium for 6 h. The fluorescence images of the cells under all these conditions were captured using a confocal laser scanning microscope. […] For the cells with pretreatment with both inhibitors, fluorescence due to 1 could hardly be seen. Similarly, for the cells being incubated with 14, the intracellular fluorescence was negligible. […] Again, for PMB 1, the fluorescence intensity was the highest for the cells without being pretreated with the two inhibitors. […] For HeLa cells being treated with 1, the fluorescence intensity of the native cells (i.e., the dual activated condition) was just 3.2-fold that of the cells under the dual inhibited condition. […]
Confocal Fluorescence Microscopic Studies […]
The cells were then rinsed with PBS twice before being examined with a Leica TCS SP8 high - speed confocal microscope equipped with a 638 nm laser. The fluorescence was monitored at 650−750 nm. The images were digitized and analyzed using a Leica Application Suite X […]

## CCN(CC)c1ccc2nc3ccc(/N=N/c4ccc(N(C)CCCNC(=O)OC[C@@H]5[C@@H]6CCc7nnn(CC(=O)NCCCC[C@@H]8NC(=O)CNC(=O)[C@H](CCCCN)NC(=O)[C@H](CCCNC(=N)N)NC(=O)[C@H](C(C)C)NC(=O)CNC(=O)[C@H](CC(C)C)NC(=O)[C@@H]9CCCN9C(=O)[C@H](CCCCN)NC(=O)[C@@H](N)CSCc9cc(COc%10ccc(C%11=C%12C(C)=C(I)C(/C=C/c%13ccc(OCCOCCOCCOC)cc%13)=[N+]%12[B-](F)(F)n%12c(/C=C/c%13ccc(OCCOCCOCCOC)cc%13)c(I)c(C)c%12%11)cc%10)cc(c9)CSC[C@@H](C(N)=O)NC(=O)[C@H](CCCCN)NC(=O)[C@H](CCCCN)NC(=O)CNC(=O)[C@H](CC(C)C)NC(=O)[C@H](Cc9ccccc9)NC(=O)CNC(=O)[C@H](CCCCN)NC(=O)CNC8=O)c7CC[C@@H]65)cc4)cc3[n+](-c3ccccc3)c2c1 [compound 1]
[1]
  tumoral fluorescence intensity relative to that of 14: 4.3 fold
[2]
  intracellular fluorescence intensity, native cells relative to dual inhibited condition: 3.2 fold
